{"source": "paper PMC11864979", "about": "“First-in-class ultralong-target-residence-time p38α inhibitors as a mitosis-targeted therapy for colorectal cancer” (Nature Cancer, 2025)", "key": {"RKO": {"tested_on": "RKO", "assay": "cell viability in human CRC cell line RKO", "format": "cell-based", "procedure": "(§1) To generate KAP^2D cells, KAP organoids were isolated from Matrigel, fragmented by mechanical dissociation and plated without any extracellular matrix on common cell culture dishes. Phoenix-Eco packaging cells (CRL-3214), HCT-15 (CCL-225), HCT 116 (CCL-247), COLO 205 (CCL-222), LS 174T (CL-188), RKO (CRL-2577) and HT-29 (HTB-38) were obtained from the American Type Culture Collection. The cells were cultured at 37 °C and 7% CO2 with RPMI (KAP^2D cells) or DMEM (other cell lines), supplemented with 10% FBS and penicillin–streptomycin. KAP^2D cells were authenticated using PCR (Kras locus and Trp53 locus). Phoenix-Eco packaging cells and HCT-15, HCT 116, COLO 205, LS 174T, RKO and HT-29 cells were authenticated by the provider using short tandem repeat profiling. No commonly misidentified cell lines were used. Mycoplasma contamination was excluded by a PCR-based analysis.\n(§2) For in vitro treatment studies, organoids were mechanically dissociated and digested using TrypLE supplemented with 100 µg ml^−1 DNaseI and 10.5 µM Y-27632 dihydrochloride (Invitrogen) at 37 °C. A total of 1,000–2,000 single cells were plated per well in white 96-well plates (Greiner) in culture medium containing 10% GFR Matrigel or Cultrex BME. The treatment with doxycycline (5 µg ml^−1), pharmacological inhibitors or corresponding volumes of DMSO was started 24 h after plating. Doxycycline was obtained from Sigma-Aldrich. […] Cell viability was measured by means of CellTiter-Glo 3D or CellTiter-Glo 2.0 reagent (Promega) according to the manufacturers’ instructions and the Infinite M Plex reader (Tecan, i-control version 3.9.1 software). Results were normalized to vehicle (DMSO) or to shNC. For cell-doubling assays, the cell number was quantified at the corresponding time points using Guava EasyCyte flow cytometer (Luminex, CytoSoft v5.2 software)."}, "HT-29": {"tested_on": "HT-29", "assay": "cell viability in human CRC cell line HT-29", "format": "cell-based", "settings": "ED Fig. 9h, replicates", "procedure": "as §1, §2"}}, "note": "Several values for one entry are separate records, joined by “and”; a condition that tells them apart may be missing. Equal values may be shown once. Read-outs that look alike come from different tables or passages of the source.", "data": [{"smiles": "CNC(=O)c1ccc2c(c1)C(=O)c1ccc(Nc3ccc(F)c(NC(=O)C4CC4)c3)cc1CC2", "note": "[Compound 2015]", "values": [{"measurement": "RKO Cell viability (%)", "setting": "RKO; 0.0137 µM, ED Fig. 9g, Repetition, replicates", "result": "116.22% and 90.48% and 118.38%"}, {"measurement": "RKO Cell viability (%)", "setting": "RKO; 0.0137 µM, ED Fig. 9g, first experiment, replicates", "result": "100.34% and 101.05%"}, {"measurement": "RKO Cell viability (%)", "setting": "RKO; 0.0412 µM, ED Fig. 9g, Repetition, replicates", "result": "83.96% and 99.53%"}, {"measurement": "RKO Cell viability (%)", "setting": "RKO; 0.0412 µM, ED Fig. 9g, first experiment, replicates", "result": "92.30% and 91.06%"}, {"measurement": "RKO Cell viability (%)", "setting": "RKO; 0.1235 µM, ED Fig. 9g, Repetition, replicates", "result": "63.64% and 62.87%"}, {"measurement": "RKO Cell viability (%)", "setting": "RKO; 0.1235 µM, ED Fig. 9g, first experiment, replicates", "result": "80.06% and 70.93%"}, {"measurement": "RKO Cell viability (%)", "setting": "RKO; 0.3704 µM, ED Fig. 9g, Repetition, replicates", "result": "22.09% and 24.58%"}, {"measurement": "RKO Cell viability (%)", "setting": "RKO; 0.3704 µM, ED Fig. 9g, first experiment, replicates", "result": "38.23% and 37.54%"}, {"measurement": "RKO Cell viability (%)", "setting": "RKO; 1.1111 µM, ED Fig. 9g, Repetition, replicates", "result": "19.45% and 19.66%"}, {"measurement": "RKO Cell viability (%)", "setting": "RKO; 1.1111 µM, ED Fig. 9g, first experiment, replicates", "result": "16.15% and 15.81%"}, {"measurement": "RKO Cell viability (%)", "setting": "RKO; 3.3333 µM, ED Fig. 9g, Repetition, replicates", "result": "19.33% and 18.47%"}, {"measurement": "RKO Cell viability (%)", "setting": "RKO; 3.3333 µM, ED Fig. 9g, first experiment, replicates", "result": "14.04% and 13.50%"}, {"measurement": "RKO Cell viability (%)", "setting": "RKO; 10.0000 µM, ED Fig. 9g, Repetition, replicates", "result": "17.62% and 19.44%"}, {"measurement": "RKO Cell viability (%)", "setting": "RKO; 10.0000 µM, ED Fig. 9g, first experiment, replicates", "result": "15.71% and 16.52%"}, {"measurement": "IC50", "setting": "RKO; Homo sapiens, 96 h, RKO, 4 d of treatment", "result": 207, "unit": "nM"}, {"measurement": "viability at 0.0137 µM", "setting": "RKO; Homo sapiens, RKO, 0.0137 µM, ED Fig. 9g, first experiment, replicates, read-out: RKO Cell viability (%)", "result": 104, "unit": "%"}, {"measurement": "viability at 0.0412 µM", "setting": "RKO; Homo sapiens, RKO, 0.0412 µM, ED Fig. 9g, Repetition, replicates, read-out: RKO Cell viability (%)", "result": 103, "unit": "%"}, {"measurement": "viability at 0.0412 µM", "setting": "RKO; Homo sapiens, RKO, 0.0412 µM, ED Fig. 9g, first experiment, replicates, read-out: RKO Cell viability (%)", "result": 104, "unit": "%"}, {"measurement": "viability at 0.1235 µM", "setting": "RKO; Homo sapiens, RKO, 0.1235 µM, ED Fig. 9g, Repetition, replicates, read-out: RKO Cell viability (%)", "result": 65.6, "unit": "%"}, {"measurement": "viability at 0.1235 µM", "setting": "RKO; Homo sapiens, RKO, 0.1235 µM, ED Fig. 9g, first experiment, replicates, read-out: RKO Cell viability (%)", "result": 73.7, "unit": "%"}, {"measurement": "viability at 0.3704 µM", "setting": "RKO; Homo sapiens, RKO, 0.3704 µM, ED Fig. 9g, Repetition, replicates, read-out: RKO Cell viability (%)", "result": 25.3, "unit": "%"}, {"measurement": "viability at 0.3704 µM", "setting": "RKO; Homo sapiens, RKO, 0.3704 µM, ED Fig. 9g, first experiment, replicates, read-out: RKO Cell viability (%)", "result": 36.7, "unit": "%"}, {"measurement": "viability at 1.1111 µM", "setting": "RKO; Homo sapiens, RKO, 1.1111 µM, ED Fig. 9g, Repetition, replicates, read-out: RKO Cell viability (%)", "result": 20, "unit": "%"}, {"measurement": "viability at 1.1111 µM", "setting": "RKO; Homo sapiens, RKO, 1.1111 µM, ED Fig. 9g, first experiment, replicates, read-out: RKO Cell viability (%)", "result": 15.3, "unit": "%"}, {"measurement": "viability at 3.3333 µM", "setting": "RKO; Homo sapiens, RKO, 3.3333 µM, ED Fig. 9g, Repetition, replicates, read-out: RKO Cell viability (%)", "result": 19.5, "unit": "%"}, {"measurement": "viability at 3.3333 µM", "setting": "RKO; Homo sapiens, RKO, 3.3333 µM, ED Fig. 9g, first experiment, replicates, read-out: RKO Cell viability (%)", "result": 14.5, "unit": "%"}, {"measurement": "viability at 10 µM", "setting": "RKO; Homo sapiens, RKO, 10.0000 µM, ED Fig. 9g, Repetition, replicates, read-out: RKO Cell viability (%)", "result": 20, "unit": "%"}, {"measurement": "viability at 10 µM", "setting": "RKO; Homo sapiens, RKO, 10.0000 µM, ED Fig. 9g, first experiment, replicates, read-out: RKO Cell viability (%)", "result": 16.2, "unit": "%"}, {"measurement": "HT-29 Cell viability (%)", "setting": "HT-29; 0.0137 µM, Repetition", "result": "96.89% and 103.43%"}, {"measurement": "HT-29 Cell viability (%)", "setting": "HT-29; 0.0137 µM, first experiment", "result": "95.39% and 93.39%"}, {"measurement": "HT-29 Cell viability (%)", "setting": "HT-29; 0.0412 µM, Repetition", "result": "87.26% and 92.22%"}, {"measurement": "HT-29 Cell viability (%)", "setting": "HT-29; 0.0412 µM, first experiment", "result": "90.94% and 92.11%"}, {"measurement": "HT-29 Cell viability (%)", "setting": "HT-29; 0.1235 µM, Repetition", "result": "78.51% and 65.92%"}, {"measurement": "HT-29 Cell viability (%)", "setting": "HT-29; 0.1235 µM, first experiment", "result": "82.62% and 81.99%"}, {"measurement": "HT-29 Cell viability (%)", "setting": "HT-29; 0.3704 µM, Repetition", "result": "32.88% and 34.27%"}, {"measurement": "HT-29 Cell viability (%)", "setting": "HT-29; 0.3704 µM, first experiment", "result": "11.40% and 11.69%"}, {"measurement": "HT-29 Cell viability (%)", "setting": "HT-29; 1.1111 µM, Repetition", "result": "7.40% and 7.23%"}, {"measurement": "HT-29 Cell viability (%)", "setting": "HT-29; 1.1111 µM, first experiment", "result": "7.18% and 7.44%"}, {"measurement": "HT-29 Cell viability (%)", "setting": "HT-29; 3.3333 µM, Repetition", "result": "7.01% and 6.31%"}, {"measurement": "HT-29 Cell viability (%)", "setting": "HT-29; 3.3333 µM, first experiment", "result": "10.00% and 9.86%"}, {"measurement": "HT-29 Cell viability (%)", "setting": "HT-29; 10.0000 µM, Repetition", "result": "6.48% and 6.38%"}, {"measurement": "HT-29 Cell viability (%)", "setting": "HT-29; 10.0000 µM, first experiment", "result": "9.39% and 10.22%"}]}]}
